Measured values reported in patent US20240342348A1, “MEDICAL DEVICES INCLUDING THERAPEUTIC COATINGS FOR LOCAL DELIVERY OF A DIRECT ANTICOAGULANT” (Boston Scientific Scimed, Inc., priority 2023, published 2024).

Tests used:
[1] = Solubility of crystalline drug in water; type: physicochemical
[2] = crystalline drug; cited from earlier work
[3] = test system: PTS; conditions: oral; cited from earlier work

Structure (SMILES): O=C(NC[C@H]1CN(c2ccc(N3CCOCC3=O)cc2)C(=O)O1)c1ccc(Cl)s1 [rivaroxaban, (S)-5-Chloro-N-((2-oxo-3-(4-(3-oxomorpholino)phenyl)oxazolidin-5-yl)methyl)thiophene-2-carboxamide]
- water solubility relative to paclitaxel and everolimus [1]: approximately 10 times
- solubility in water [2]: about 3 μg drug per mL water
- risk of PTS [3]: significantly reduces the risk of PTS
